± gives the expanded uncertainty stated by the source.
Assay: mn = molality of the nth substance listed, in mol/kg
Conditions: 350 kPa, Liquid; for apparent molar heat capacity: Extra sensitive DSC

CNC(C)=O [N-methylacetamide] + O
Conditions | apparent molar heat capacity [J/K/mol] | mass density [kg/m3]
328.15 K, m1 = 0.2002 | – | 985.56 ± 0.38
328.15 K, m1 = 0.4 | – | 985.32 ± 0.39
328.15 K, m1 = 0.599 | – | 985.18 ± 0.39
328.15 K, m1 = 0.8028 | – | 985.04 ± 0.39
328.15 K, m1 = 1 | – | 984.85 ± 0.39
333.15 K, m1 = 0.015 | 260 ± 52 | –
333.15 K, m1 = 0.04 | 265.7 ± 20 | –
333.15 K, m1 = 0.07 | 267 ± 12 | –
333.15 K, m1 = 0.1001 | 271.2 ± 8.4 | –
333.15 K, m1 = 0.2002 | 271 ± 4.5 | –
333.15 K, m1 = 0.4 | 267.55 ± 2.6 | –
333.15 K, m1 = 0.599 | 274.8 ± 2.1 | –
333.15 K, m1 = 0.8028 | 266.47 ± 1.7 | –
333.15 K, m1 = 1 | 265.86 ± 1.5 | –
338.15 K, m1 = 0.015 | 264 ± 52 | –
338.15 K, m1 = 0.04 | 266.3 ± 20 | –
338.15 K, m1 = 0.07 | 269.1 ± 12 | –
338.15 K, m1 = 0.1001 | 272.8 ± 8.4 | –
338.15 K, m1 = 0.2002 | 272.4 ± 4.5 | –
338.15 K, m1 = 0.4 | 269.46 ± 2.6 | –
338.15 K, m1 = 0.599 | 276.4 ± 2.1 | –
338.15 K, m1 = 0.8028 | 268.26 ± 1.7 | –
338.15 K, m1 = 1 | 267.6 ± 1.5 | –
343.15 K, m1 = 0.015 | 268 ± 52 | –
343.15 K, m1 = 0.04 | 267.1 ± 20 | –
343.15 K, m1 = 0.07 | 270.8 ± 12 | –
343.15 K, m1 = 0.1001 | 274.1 ± 8.4 | –
343.15 K, m1 = 0.2002 | 273.7 ± 4.5 | –
343.15 K, m1 = 0.4 | 271.09 ± 2.6 | –
343.15 K, m1 = 0.599 | 277.9 ± 2.1 | –
343.15 K, m1 = 0.8028 | 269.89 ± 1.7 | –
343.15 K, m1 = 1 | 269.2 ± 1.5 | –
348.15 K, m1 = 0.015 | 271 ± 52 | 974.89 ± 0.43
348.15 K, m1 = 0.04 | 268.3 ± 20 | 974.87 ± 0.43
348.15 K, m1 = 0.07 | 272.5 ± 12 | 974.87 ± 0.43
348.15 K, m1 = 0.1001 | 275.2 ± 8.4 | 974.82 ± 0.43
348.15 K, m1 = 0.2002 | 274.9 ± 4.5 | 974.63 ± 0.43
348.15 K, m1 = 0.4 | 272.57 ± 2.6 | 974.29 ± 0.43
348.15 K, m1 = 0.599 | 279.4 ± 2.1 | 974.05 ± 0.43
348.15 K, m1 = 0.8028 | 271.43 ± 1.7 | 973.79 ± 0.44
348.15 K, m1 = 1 | 270.73 ± 1.5 | 973.51 ± 0.44
353.15 K, m1 = 0.015 | 273 ± 52 | –
353.15 K, m1 = 0.04 | 269.5 ± 20 | –
353.15 K, m1 = 0.07 | 274 ± 12 | –
353.15 K, m1 = 0.1001 | 276.3 ± 8.4 | –
353.15 K, m1 = 0.2002 | 276 ± 4.5 | –
353.15 K, m1 = 0.4 | 273.95 ± 2.6 | –
353.15 K, m1 = 0.599 | 280.7 ± 2.1 | –
353.15 K, m1 = 0.8028 | 272.85 ± 1.7 | –
353.15 K, m1 = 1 | 272.12 ± 1.5 | –
358.15 K, m1 = 0.015 | 274 ± 52 | 968.67 ± 0.46
358.15 K, m1 = 0.04 | 270.2 ± 20 | 968.65 ± 0.46
358.15 K, m1 = 0.07 | 275.5 ± 12 | 968.63 ± 0.46
358.15 K, m1 = 0.1001 | 277.5 ± 8.4 | 968.56 ± 0.46
358.15 K, m1 = 0.2002 | 277.2 ± 4.5 | 968.36 ± 0.46
358.15 K, m1 = 0.4 | 275.31 ± 2.6 | 967.97 ± 0.46
358.15 K, m1 = 0.599 | 281.9 ± 2.1 | 967.67 ± 0.46
358.15 K, m1 = 0.8028 | 274.18 ± 1.7 | 967.36 ± 0.46
358.15 K, m1 = 1 | 273.45 ± 1.5 | 967.06 ± 0.47
363.15 K, m1 = 0.015 | 276 ± 52 | –
363.15 K, m1 = 0.04 | 270.5 ± 20 | –
363.15 K, m1 = 0.07 | 277.1 ± 12 | –
363.15 K, m1 = 0.1001 | 278.7 ± 8.4 | –
363.15 K, m1 = 0.2002 | 278.5 ± 4.5 | –
363.15 K, m1 = 0.4 | 276.62 ± 2.6 | –
363.15 K, m1 = 0.599 | 283.1 ± 2 | –
363.15 K, m1 = 0.8028 | 275.42 ± 1.7 | –
363.15 K, m1 = 1 | 274.69 ± 1.5 | –
368.15 K, m1 = 0.015 | 277 ± 52 | 961.97 ± 0.49
368.15 K, m1 = 0.04 | 270.9 ± 20 | 961.92 ± 0.49
368.15 K, m1 = 0.07 | 278.3 ± 12 | 961.9 ± 0.49
368.15 K, m1 = 0.1001 | 279.7 ± 8.4 | 961.83 ± 0.49
368.15 K, m1 = 0.2002 | 279.5 ± 4.5 | 961.62 ± 0.49
368.15 K, m1 = 0.4 | 277.76 ± 2.6 | 961.19 ± 0.49
368.15 K, m1 = 0.599 | 284.1 ± 2.1 | 960.81 ± 0.49
368.15 K, m1 = 0.8028 | 276.51 ± 1.7 | 960.43 ± 0.5
368.15 K, m1 = 1 | 275.75 ± 1.5 | 960.09 ± 0.5
373.15 K, m1 = 0.015 | 277 ± 52 | –
373.15 K, m1 = 0.04 | 270.8 ± 20 | –
373.15 K, m1 = 0.07 | 279.3 ± 12 | –
373.15 K, m1 = 0.1001 | 280.7 ± 8.4 | –
373.15 K, m1 = 0.2002 | 280.5 ± 4.5 | –
373.15 K, m1 = 0.4 | 278.82 ± 2.6 | –
373.15 K, m1 = 0.599 | 285.12 ± 2 | –
373.15 K, m1 = 0.8028 | 277.53 ± 1.7 | –
373.15 K, m1 = 1 | 276.77 ± 1.5 | –
378.15 K, m1 = 0.015 | 275 ± 52 | –
378.15 K, m1 = 0.04 | 270.6 ± 20 | –
378.15 K, m1 = 0.07 | 280 ± 12 | –
378.15 K, m1 = 0.1001 | 281.5 ± 8.4 | –
378.15 K, m1 = 0.2002 | 281.4 ± 4.5 | –
378.15 K, m1 = 0.4 | 279.75 ± 2.6 | –
378.15 K, m1 = 0.599 | 286.01 ± 2 | –
378.15 K, m1 = 0.8028 | 278.43 ± 1.6 | –
378.15 K, m1 = 1 | 277.65 ± 1.4 | –
383.15 K, m1 = 0.015 | 273 ± 52 | –
383.15 K, m1 = 0.04 | 270.2 ± 20 | –
383.15 K, m1 = 0.07 | 280.4 ± 12 | –
383.15 K, m1 = 0.1001 | 282.2 ± 8.4 | –
383.15 K, m1 = 0.2002 | 282.2 ± 4.5 | –
383.15 K, m1 = 0.4 | 280.52 ± 2.6 | –
383.15 K, m1 = 0.599 | 286.77 ± 2 | –
383.15 K, m1 = 0.8028 | 279.21 ± 1.6 | –
383.15 K, m1 = 1 | 278.41 ± 1.4 | –
388.15 K, m1 = 0.015 | 273 ± 52 | –
388.15 K, m1 = 0.04 | 270.5 ± 20 | –
388.15 K, m1 = 0.07 | 281.2 ± 12 | –
388.15 K, m1 = 0.1001 | 282.6 ± 8.4 | –
388.15 K, m1 = 0.2002 | 282.8 ± 4.5 | –
388.15 K, m1 = 0.4 | 281.15 ± 2.6 | –
388.15 K, m1 = 0.599 | 287.45 ± 2 | –
388.15 K, m1 = 0.8028 | 279.89 ± 1.6 | –
388.15 K, m1 = 1 | 279.13 ± 1.4 | –
393.15 K, m1 = 0.015 | 278 ± 52 | –
393.15 K, m1 = 0.04 | 273.2 ± 20 | –
393.15 K, m1 = 0.07 | 282.4 ± 12 | –
393.15 K, m1 = 0.1001 | 281.9 ± 8.4 | –
393.15 K, m1 = 0.2002 | 282.8 ± 4.5 | –
393.15 K, m1 = 0.4 | 281.41 ± 2.6 | –
393.15 K, m1 = 0.599 | 287.87 ± 2 | –
393.15 K, m1 = 0.8028 | 280.37 ± 1.6 | –
393.15 K, m1 = 1 | 279.71 ± 1.4 | –

From the NIST ThermoML archive (doi:10.1016/j.jct.2006.04.007)
